Where two headings read alike, the source gives them in different places.
Test system: HBsAg
Experiment: HBsAg assay: inhibition of HBsAg in HepG2.2.15 cells (chemiluminescence immunoassay of supernatant)
Assay type: cell-based, hepatitis B virus
Conditions: HBsAg in supernatant at day 6 after exposure to compound, 0.5% DMSO
In short: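 Secreted HBsAg quantified by CLIA in day-6 supernatants of HepG2.2.15 cultures given compound dilutions at 0.5% final DMSO, with one compound/medium replenishment after 2–3 days. Dose-response fits gave EC50 (50% inhibition); viability checked separately by CellTiter-Glo.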

[1] = read-out: sAg EC50, HepG2.2.15 cells
[2] = Hepatitis B virus, HepG2.2.15, 144 h, read-out: sAg EC50, HepG2.2.15 cells

## Cc1c(C2CC2c2cnc(-c3ncccn3)nc2)ccc(Cl)c1OCC1CC1 (single isomer, unassigned) [Example 61, trans-5-(2-(4-Chloro-3-(cyclopropylmethoxy)-2-methylphenyl)cyclopropyl)-2,2′-bipyrimidine]
[1]
  EC50: 430 nM

## COc1cc(C2CC2c2cnc(-c3ncccn3)nc2)c(C)cc1Cl (single isomer, unassigned) [Example 52, trans-5-(2-(4-Chloro-5-methoxy-2-methylphenyl)cyclopropyl)-2,2′-bipyrimidine]
[1]
  EC50: 1000 nM

## COc1cc(C2CC2c2cnc(-c3ncccn3)nc2)cc(Cl)c1Cl (single isomer, unassigned) [Example 59, trans-5-(2-(3,4-Dichloro-5-methoxyphenyl)cyclopropyl)-2,2′-bipyrimidine]
[1]
  EC50: 32 nM

## c1cnc(-c2ncc([C@@H]3C[C@H]3c3cnc4ccccn34)cn2)nc1 (relative stereo) [Example 170, trans-3-(2-([2,2′-Bipyrimidin]-5-yl)cyclopropyl)imidazo[1,2-a]pyridine]
[2]
  EC50: 1000 nM

## Fc1cc(F)c2nc([C@@H]3C[C@H]3c3cnc(-c4ncccn4)nc3)sc2c1 (relative stereo) [Example 270, trans-2-(2-([2,2′-Bipyrimidin]-5-yl)cyclopropyl)-4,6-difluorobenzo[d]thiazole]
[2]
  EC50: 500 nM

## COCCOc1cc(C2CC2c2cnc(-c3ncccn3)nc2)cc(F)c1F (single isomer, unassigned) [Example 135, trans-5-(2-(3,4-Difluoro-5-(2-methoxyethoxy)phenyl)cyclopropyl)-2,2′-bipyrimidine]
[1]
  EC50: 22 nM

## Fc1cc(C2CC2c2cnc(-c3ncccn3)nc2)cc(-n2ccnc2)c1F (single isomer, unassigned) [Example 182, trans-5-(2-(3,4-Difluoro-5-(1H-imidazol-1-yl)phenyl)cyclopropyl)-2,2′-bipyrimidine]
[1]
  EC50: 64 nM

## COc1ccc([C@@H]2C[C@H]2c2cnc(-c3ncccn3)nc2)c(F)c1 (relative stereo) [Example 1, trans-5-(2-(2-Fluoro-4-methoxyphenyl)cyclopropyl)-2,2′-bipyrimidine]
[2]
  EC50: 200 nM

## Fc1cn(-c2cc(C3CC3c3cnc(-c4ncccn4)nc3)cc(F)c2F)cc1F (single isomer, unassigned) [Example 258, trans-5-(2-(3-(3,4-Difluoro-1H-pyrrol-1-yl)-4,5-difluorophenyl)cyclopropyl)-2,2′-bipyrimidine]
[1]
  EC50: 14 nM

## COc1cc(C2CC2c2cnc(-c3ncccn3)nc2)ccc1Cl (single isomer, unassigned) [Example 34, trans-5-(2-(4-Chloro-3-methoxyphenyl)cyclopropyl)-2,2′-bipyrimidine]
[1]
  EC50: 150 nM

## COc1cc(C2CC2c2cnc(-c3ncccn3)nc2)cc(Cl)c1F (single isomer, unassigned) [Example 149, trans-5-(2-(3-Chloro-4-fluoro-5-methoxyphenyl)cyclopropyl)-2,2′-bipyrimidine]
[1]
  EC50: 62 nM

## Fc1ccc(C2CC2c2cnc(-c3ncccn3)nc2)cc1F (single isomer, unassigned) [Example 14, trans-5-(2-(3,4-Difluorophenyl)cyclopropyl)-2,2′-bipyrimidine]
[1]
  EC50: 1000 nM

## COc1c(F)ccc(C2CC2c2cnc(-c3ncccn3)nc2)c1F (single isomer, unassigned) [Example 190, trans-5-(2-(2,4-Difluoro-3-methoxyphenyl)cyclopropyl)-2,2′-bipyrimidine]
[1]
  EC50: 1300 nM

## COc1cc(C2CC2c2cnc(-c3ncccn3)nc2C)ccc1F (single isomer, unassigned) [Example 17, trans-5-(2-(4-Fluoro-3-methoxyphenyl)cyclopropyl)-4-methyl-2,2′-bipyrimidine]
[2]
  EC50: 650 nM

## COCCOc1ccc(C2CC2c2cnc(-c3ncccn3)nc2)cc1F (single isomer, unassigned) [Example 24, trans-5-(2-(3-Fluoro-4-(2-methoxyethoxy)phenyl)cyclopropyl)-2,2′-bipyrimidine]
[1]
  EC50: 150 nM

## Fc1ccc(C2CC2c2cnc(-c3ncccn3)nc2)cc1OC(F)F (single isomer, unassigned) [Example 185, trans-5-(2-(3-(Difluoromethoxy)-4-fluorophenyl)cyclopropyl)-2,2′-bipyrimidine]
[1]
  EC50: 120 nM

## COc1cc(C2CN(c3cc([C@@H]4C[C@H]4c4cnc(-c5ncccn5)nc4)cc(F)c3F)C2)ccc1F (relative stereo) [Example 215, trans-5-(2-(3,4-Difluoro-5-(3-(4-fluoro-3-methoxyphenyl)azetidin-1-yl)phenyl)cyclopropyl)-2,2′-bipyrimidine]
[2]
  EC50: 70 nM

## COc1cc(C2CC2c2ccc(-c3ncccn3)nc2)cc(F)c1F (single isomer, unassigned) [Example 124, trans-2-(5-(2-(3,4-Difluoro-5-methoxyphenyl)cyclopropyl)pyridin-2-yl)pyrimidine]
[1]
  EC50: 290 nM

## Fc1ccc(C2CC2c2cnc(-c3ncccn3)nc2)cc1OC(F)(F)F (single isomer, unassigned) [Example 40, trans-5-(2-(4-Fluoro-3-(trifluoromethoxy)phenyl)cyclopropyl)-2,2′-bipyrimidine]
[1]
  EC50: 110 nM

## Fc1cc(Cl)cc(C2CC2c2cnc(-c3ncccn3)nc2)c1 (single isomer, unassigned) [Example 118, trans-5-(2-(3-Chloro-5-fluorophenyl)cyclopropyl)-2,2′-bipyrimidine]
[1]
  EC50: 2000 nM

## COC1CN(c2cc([C@@H]3C[C@H]3c3cnc(-c4ncccn4)nc3)cc(F)c2F)C1 (single isomer, unassigned) [Example 122, trans-5-(2-(3,4-difluoro-5-(3-methoxyazetidin-1-yl)phenyl)cyclopropyl)-2,2′-bipyrimidine]
[1]
  EC50: 61 nM

## CN(C)C(=O)c1cc(C2CC2c2cnc(-c3ncccn3)nc2)ccc1Cl (single isomer, unassigned) [Example 203, trans-5-(2-([2,2′-Bipyrimidin]-5-yl)cyclopropyl)-2-chloro-N,N-dimethylbenzamide]
[2]
  EC50: 6000 nM

## COc1cc(C2CC2c2cnc(-c3ncccn3)nc2C2CCCCC2)ccc1F (single isomer, unassigned) [Example 79, trans-4-Cyclohexyl-5-(2-(4-fluoro-3-methoxyphenyl)cyclopropyl)-2,2′-bipyrimidine]
[1]
  EC50: 220 nM

## CC1(C)CN(c2cc(C3CC3c3cnc(-c4ncccn4)nc3)cc(F)c2F)C1 (single isomer, unassigned) [Example 139, trans-5-(2-(3-(3,3-Dimethylazetidin-1-yl)-4,5-difluorophenyl)cyclopropyl)-2,2′-bipyrimidine]
[1]
  EC50: 88 nM

## CCCc1cc(F)c(OC)cc1C1CC1c1cnc(-c2ncccn2)nc1 (single isomer, unassigned) [Example 37, trans-5-(2-(4-Fluoro-5-methoxy-2-propylphenyl)cyclopropyl)-2,2′-bipyrimidine]
[1]
  EC50: 2000 nM

## COc1c(Cl)ccc(C2CC2c2cnc(-c3ncccn3)nc2)c1OC (single isomer, unassigned) [Example 114, trans-5-(2-(4-Chloro-2,3-dimethoxyphenyl)cyclopropyl)-2,2′-bipyrimidine]
[1]
  EC50: 3000 nM

## COc1c(Cl)ccc(C2CC2c2cnc(-c3ncccn3)nc2)c1F (single isomer, unassigned) [Example 55, trans-5-(2-(4-Chloro-2-fluoro-3-methoxyphenyl)cyclopropyl)-2,2′-bipyrimidine]
[1]
  EC50: 1000 nM

## COc1cc(C2CC2c2cnc(-c3ncccn3)nc2N2CCCCC2)ccc1F (single isomer, unassigned) [Example 145, trans-5-(2-(4-Fluoro-3-methoxyphenyl)cyclopropyl)-4-(piperidin-1-yl)-2,2′-bipyrimidine]
[1]
  EC50: 700 nM

## COc1cc(C2CC2c2cnc(-c3ncccn3)nc2-c2ccccc2)ccc1F (single isomer, unassigned) [Example 143, trans-5-(2-(4-Fluoro-3-methoxyphenyl)cyclopropyl)-4-phenyl-2,2′-bipyrimidine]
[1]
  EC50: 120 nM

## Fc1ccc(C2CC2c2cnc(-c3ncccn3)nc2)cc1Cl (single isomer, unassigned) [Example 29, trans-5-(2-(3-Chloro-4-fluorophenyl)cyclopropyl)-2,2′-bipyrimidine]
[1]
  EC50: 780 nM

## Cc1cn(-c2cc(C3CC3c3cnc(-c4ncccn4)nc3)cc(F)c2F)cn1 (single isomer, unassigned) [Example 262, trans-5-(2-(3,4-Difluoro-5-(4-methyl-1H-imidazol-1-yl)phenyl)cyclopropyl)-2,2′-bipyrimidine]
[1]
  EC50: 47 nM

## Clc1ccc(C2CC2c2cnc(-c3ncccn3)nc2)cc1N1CCCC1 (single isomer, unassigned) [Example 199, trans-5-(2-(4-Chloro-3-(pyrrolidin-1-yl)phenyl)cyclopropyl)-2,2′-bipyrimidine]
[1]
  EC50: 140 nM

## Fc1c(Cl)cc(C2CC2c2cnc(-c3ncccn3)nc2)cc1N1CCCC1 (single isomer, unassigned) [Example 109, trans-5-(2-(3-Chloro-4-fluoro-5-(pyrrolidin-1-yl)phenyl)cyclopropyl)-2,2′-bipyrimidine]
[1]
  EC50: 25 nM

## CN1CCN(c2cc(C3CC3c3cnc(-c4ncccn4)nc3)ccc2F)CC1 (single isomer, unassigned) [Example 188, trans-5-(2-(4-Fluoro-3-(4-methylpiperazin-1-yl)phenyl)cyclopropyl)-2,2′-bipyrimidine]
[1]
  EC50: 4000 nM

## COc1cc([C@@H]2C[C@H]2c2cnc(-c3ccccn3)nc2)cc(F)c1F (relative stereo) [Example 174, trans-5-(2-(3,4-Difluoro-5-methoxyphenyl)cyclopropyl)-2-(pyridin-2-yl)pyrimidine]
[2]
  EC50: 67 nM

## COc1cc(C2CC2c2cnc(-c3ncccn3)nc2)ccc1F (single isomer, unassigned) [Example 11, trans-5-(2-(4-Fluoro-3-methoxyphenyl)cyclopropyl)-2,2′-bipyrimidine]
[1]
  EC50: 730 nM

Reference: patent US20230083973A1, “SUBSTITUTED CYCLOPROPYL-2,2'-BIP[…], ANALOGUES THEREOF, AND METHODS USING SAME” (priority 2019, published 2023)
